In patent publication US20230248647A1, “SILICA HYDROGEL COMPOSITE AND ITS USE” (DelSiTech Oy, priority 2020, published 2023):
Structures can show the parent of a compound that is named as a salt. Each block holds one molecule with its values, some of them ahead of it.

Legend:
Solubility in water = format: physicochemical; conditions: corresponds to 0.019 mg/ml
[1] = Particle size distribution analysis by laser diffraction (Sympatec HELOS H3973); format: physicochemical; conditions: micronized particles
Protocol: For particle size distribution analysis, the non-active silica particles (which were used in silica hydrogel composite #29HG) were dispersed in ethanol, and the analysis was conducted using a Sympatec HELOS H3973 laser diffraction instrument. The particle size distribution for non-active silica particles is shown in Table 2 (D10, D50 and D90 means that 10%, 50%, and 90% of the particles are equal or smaller than the indicated size)
The particles size distribution analysis for micronized (described in Example 1) Anagrelide HCl particles was also conducted using a Sympatec HELOS H3973 laser diffraction instrument. The particle size was mainly between 1 and 200 micrometers, where D10 was 16.6 micrometers, D50 80.4 micrometers, and D90 155 micrometers.

[2] = In vivo pharmacokinetic experiment, oral and subcutaneous administration; parameters: species or system male SD (Sprague Dawley) rats; conditions: for AUC(0-t) / Cmax / Tmax / half-life: male, Sprague-Dawley, rat, plasma
Protocol: Silica hydrogel composite #29HG was used as a depot for male SD (Sprague Dawley) rats (5 animals/dosing group) in subcutaneous (SC+a letter A-E referring to different groups) administration of Anagrelide, and for oral administration (PO). The oral dose was prepared by adding 18.00 mg of Anagrelide hydrochloride into […] of 10 w-% ethanol with vortexing and sonication to obtain a suspension with concentration of 0.5 mg/ml of Anagrelide hydrochloride. The oral dose (5 mg/kg) was provided only in 12 h study, and it was freshly made just prior to dosing. Both 12 hour and 10 d pharmacokinetic experiments were conducted for the silica hydrogel composite for 2 different anagrelide hydrochloride doses (17.5 mg/kg and 35 mg/kg), and 28 d experiment only for the dose of 35 mg/kg.
The bioanalysis was conducted by using LC-MS/MS. The desired serial concentrations of working solutions were achieved by diluting stock solution of analyte with 50% acetonitrile in water solution. 5 μL of working solutions (2, 5, 10, 20, 50, 100, 500, 1000, 5000, 10000 ng/mL) were added to 50 μL of the male blank SD Rat plasma to achieve calibration standards of 0.2-1000 ng/mL (0.2, 0.5, 1, 2, 5, 10, 50, 100, 500, 1000 ng/mL) in a total volume of 55 μL. Four quality control samples at 0.5 ng/mL, 1 ng/mL, 50 ng/mL and 800 ng/mL for plasma were prepared independently of those used for the calibration curves. These QC samples were prepared on the day of analysis in the same way as calibration standards. 55 μL of standards, 55 μL of QC samples and 55 μL of unknown samples (50 μL of plasma with 5 μL of blank solution) were added to 200 μL of acetonitrile containing IS mixture for precipitating protein respectively. Then the samples were vortexed for 30 s. After centrifugation at 4 degree Celsius, 4700 rpm for 15 min, the supernatant was diluted 3 times with water, and 10 μL of diluted supernatant was injected into the LC-MS/MS system for quantitative analysis. The mean plasma concentrations of Anagrelide Hydrochloride for 12 h experiment are shown in FIG. 4, and corresponding results for 10 d experiment in FIG. 5, and for 28 d experiment in FIG. 6.

[3] = cited from earlier work
[4] = po, 5 mg/kg, oral suspension 5 mg/kg, 12 h experiment
[5] = sc, 17.5 mg/kg, SCA, subcutaneous silica hydrogel composite #29HG depot 17.5 mg/kg, 12 h experiment
[6] = sc, 17.5 mg/kg, SCB, subcutaneous silica hydrogel composite #29HG depot 17.5 mg/kg, 10 d experiment
[7] = sc, 35 mg/kg, SCC, subcutaneous silica hydrogel composite #29HG depot 35 mg/kg, 12 h experiment
[8] = sc, 35 mg/kg, SCD, subcutaneous silica hydrogel composite #29HG depot 35 mg/kg, 10 d experiment
[9] = sc, 35 mg/kg, SCE, subcutaneous silica hydrogel composite #29HG depot 35 mg/kg, 28 d experiment

solubility in water as weight-% (Solubility in water): 0.0019 weight-%
D10 [1]: 16.6 micrometers
D50 [1]: 80.4 micrometers
D90 [1]: 155 micrometers
AUClast/D ([2]; PO, oral suspension 5 mg/kg, 12 h experiment): 64 ± 47 ng·h/mL per mg/kg
AUClast/D ([2]; SCA, subcutaneous silica hydrogel composite #29HG depot 17.5 mg/kg, 12 h experiment): 1.67 ± 0.4 ng·h/mL per mg/kg
AUClast/D ([2]; SCB, subcutaneous silica hydrogel composite #29HG depot 17.5 mg/kg, 10 d experiment): 29.8 ± 12.5 ng·h/mL per mg/kg
AUClast/D ([2]; SCC, subcutaneous silica hydrogel composite #29HG depot 35 mg/kg, 12 h experiment): 0.99 ± 0.3 ng·h/mL per mg/kg
AUClast/D ([2]; SCD, subcutaneous silica hydrogel composite #29HG depot 35 mg/kg, 10 d experiment): 21.4 ± 9.1 ng·h/mL per mg/kg
AUC(0-t) [2, 4]: 320 ± 235 ng·h/mL
Cmax [2, 4]: 62 ± 47 ng/mL
Tmax [2, 4]: 3 ± 2 h
half-life [2, 4]: 1.3 ± 0.27 h
AUC(0-t) [2, 5]: 29.2 ± 7.1 ng·h/mL
Cmax [2, 5]: 4.55 ± 1.41 ng/mL
Tmax [2, 5]: 1.1 ± 0.55 h
half-life [2, 5]: 4.92 ± 0.85 h
AUC(0-t) [2, 6]: 521 ± 218 ng·h/mL
Cmax [2, 6]: 3.58 ± 1.51 ng/mL
Tmax [2, 6]: 96 ± 102 h
AUC(0-t) [2, 7]: 34.5 ± 10.6 ng·h/mL
Cmax [2, 7]: 6.3 ± 4.2 ng/mL
Tmax [2, 7]: 0.8 ± 0.27 h
half-life [2, 7]: 7.03 ± 1.04 h
AUC(0-t) [2, 8]: 749 ± 320 ng·h/mL
Cmax [2, 8]: 5.29 ± 2.28 ng/mL
Tmax [2, 8]: 154 ± 79 h
AUC(0-t) [2, 9]: 1600 ng·h/mL
Tmax [2, 9]: 188 h
half-life [2, 9]: 167 h
SMILES: O=C1CN2Cc3c(ccc(Cl)c3Cl)N=C2N1 [Anagrelide HCl, Anagrelide hydrochloride]
clinical symptoms ([2]; SD rats, entire experiment (PO 5 mg/kg; SC #29HG depot 17.5 and 35 mg/kg)): No abnormal clinical symptoms were observed
release behaviour from plasma concentration results ([2]; delivered as solid particles in silica hydrogel composite, SC, SD rats): sustained and controlled release is achieved
solubility in water [3]: 19 µg/mL

SMILES: O=C1CN2Cc3c(ccc(Cl)c3Cl)N=C2N1 [Anagrelide]
solubility of base form compared with Anagrelide HCl ([3]; water): even lower solubility than Anagrelide HCl
